These results are taken from the NIST ThermoML archive (doi:10.1016/j.fluid.2005.01.002).

Data set [1] is described as follows: activity coefficient (dimensionless); of the first substance listed, at infinite dilution; xn = mol fraction of the nth substance listed. The note with it: 353.15 K; 101.33 kPa; Liquid; Static method; x1 = 0.
For data set [2] the following is noted: 353.15 K; Liquid.

“And” between values parts separate entries of the source, which are not always exact repeats. Identical values can stand only once. Numbers after ± are expanded uncertainties.

Turning to `CC(C)O` [propan-2-ol] + CCn1cc[n+](C)c1.O=S(=O)([N-]S(=O)(=O)C(F)(F)F)C(F)(F)F, the activity coefficient in data set [1] amounted to 1.42 ± 0.02.
For `O` [water], the “vapor or sublimation pressure” value in data set [2] is 47.37 ± 0.58 kPa and 47.82 ± 0.58 kPa.
The same measure, in the same setting: as for `CO` [methanol], the figure is 182.61 ± 1.2 kPa.
As for `CC(C)=O` [acetone] + CCn1cc[n+](C)c1.O=S(=O)([N-]S(=O)(=O)C(F)(F)F)C(F)(F)F, the activity coefficient in data set [1] amounted to 0.438 ± 0.01.
`O` [water] + CCn1cc[n+](C)c1.O=S(=O)([N-]S(=O)(=O)C(F)(F)F)C(F)(F)F: the activity coefficient in data set [1] is 2.32 ± 0.04.
Regarding `O` [water] + COP(=O)([O-])OC.Cn1cc[n+](C)c1, the activity coefficient in data set [1] is 0.028 ± 0.01.
Same read-out and setting: the result for `C1CCOC1` [tetrahydrofuran] + CCn1cc[n+](C)c1.O=S(=O)([N-]S(=O)(=O)C(F)(F)F)C(F)(F)F reads 0.8 ± 0.01; that for `C1CCOC1` [tetrahydrofuran] + COP(=O)([O-])OC.Cn1cc[n+](C)c1, 3.21 ± 0.05.
With `C1CCOC1` [tetrahydrofuran], the “vapor or sublimation pressure” value in data set [2] was 155.92 ± 1 kPa and 157.86 ± 1 kPa.
As for `O` [water] + CCCC[n+]1ccn(C)c1.O=S(=O)([N-]S(=O)(=O)C(F)(F)F)C(F)(F)F, the activity coefficient in data set [1] is 2.27 ± 0.03.
With `CC(C)=O` [acetone] + COP(=O)([O-])OC.Cn1cc[n+](C)c1, the activity coefficient in data set [1] worked out at 0.98 ± 0.01.
For the compound `CO` [methanol] + COP(=O)([O-])OC.Cn1cc[n+](C)c1, the activity coefficient in data set [1] was found to be 0.029 ± 0.01.
The same measure, in the same setting: the result for `CC(C)=O` [acetone] + CCCC[n+]1ccn(C)c1.O=S(=O)([N-]S(=O)(=O)C(F)(F)F)C(F)(F)F reads 0.406 ± 0.01.
`CC(C)O` [propan-2-ol]: the “vapor or sublimation pressure” value in data set [2] is 92.26 ± 0.62 kPa and 91.99 ± 0.61 kPa.
On to `CC(C)O` [propan-2-ol] + CCCC[n+]1ccn(C)c1.O=S(=O)([N-]S(=O)(=O)C(F)(F)F)C(F)(F)F, for which the activity coefficient in data set [1] was 1.1 ± 0.01.
On to `CCO` [ethanol] + COP(=O)([O-])OC.Cn1cc[n+](C)c1, for which the activity coefficient in data set [1] amounted to 0.115 ± 0.01.
On to `CCO` [ethanol], for which the “vapor or sublimation pressure” value in data set [2] came to 109.08 ± 0.72 kPa.
The same measure, in the same setting: as for `CC(C)=O` [acetone], the figure is 215.16 ± 1.4 kPa and 215.04 ± 1.4 kPa and 216.82 ± 5.5 kPa.
